Source: patent publication US11964980B2, “Crystalline forms of (S)-1-(4-fluorophenyl)-1-(2-(4-(6-(1-methyl-1H-pyrazol-4-yl)pyrrolo[2,1- f][1,2,4]triazin-4-yl)piperazinyl)-pyrimidin-5-yl)ethan-1-amine and methods of making” (Blueprint Medicines Corporation, priority 2019, dated 2024)
Entries after “also recorded” stand apart in the source; their conditions may differ.

Columns and labels:
[1] = tested on: patients with indolent systemic mastocytosis; test: Phase 2 PIONEER trial Part 1: safety; type: in vivo, human
Description: (§1) This is a Phase 2, randomized, double-blind, placebo-controlled study comparing the efficacy and safety of Compound (I)+best supportive care (BSC) with placebo+BSC in patients with ISM and SSM whose symptoms are not adequately controlled by BSC. The study is conducted in three parts. In Part 1, the optimal dose Compound (I) (recommended phase 2 dose (RP2D)) was identified in patients with ISM. In Part 2, patients with ISM and SSM are randomly assigned to the RP2D of Compound (I) identified in Part 1+BSC, or to matching placebo+BSC. In Part 3, patients who have completed treatment in Part 1 or Part 2 of the study participate in a long-term extension, receiving Compound (I) at the RP2D+BSC.
(§2) In Part 1 of the study, approximately 40 patients were randomly assigned to 1 of 3 doses of Compound (I) or to placebo. Each dose-level cohort and placebo group in Part 1 was composed of 10 patients. The 3 dose levels of Compound (I) were tested in parallel: 25, 50, and 100 mg. Patients, study staff, and the Sponsor were blinded to treatment assignment.
(§3) Compound (I) was administered orally, once a day in continuous 28-day cycles. Patients were assessed weekly for the first 4 weeks, then every 4 weeks (until the RP2D was determined) for safety, laboratory monitoring, and quality of life (QoL) assessments. Intensive pharmacokinetic (PK) sampling was performed in all patients. The ISM-SAF was completed once a day. After completion of 12 weeks of treatment, BM and skin biopsy were repeated for MC quantification and skin photographs were taken in patients with baseline CM.
Part 1 of the PIONEER trial was designed to determine the RP2D by evaluating three doses of Compound (I) (25 mg, 50 mg and 100 mg QD) versus placebo. Key eligibility criteria include adults with ISM confirmed by central pathology review of bone marrow biopsy (according to WHO criteria) and moderate-to-severe symptom burden despite best supportive care medicines. Overall, 39 patients were enrolled in Part 1 across four concurrent cohorts, consisting of 10 patients each in the Compound (I) dose cohorts and nine patients in the placebo cohort.

[2] = tested on: patients with indolent systemic mastocytosis; test: Phase 2 PIONEER trial Part 1: ISM-SAF symptom scores and MC-QoL; type: in vivo, human
Description: as §1
In Part 1, immediately after informed consent was obtained, management of SM symptoms was optimized, and BSC medication doses and schedules for SM symptom management were stabilized, if needed, over four weeks. Within five days after informed consent is obtained, ISM-SAF (ISM Symptom Assessment Form) data collection begins. The number of anaphylactic episodes treated with epinephrine and all concomitant medications received for any indication were collected from the time of informed consent.
Once BSC was optimized (between Day −98 and Day −71) and doses were stable for ≥14 days, ISM-SAF data was collected for an additional 14 days to determine eligibility based on symptom severity i.e., to identify ISM and SSM patients having moderate-to-severe symptoms. Patients not meeting the symptom severity threshold were deemed screen failures and were not eligible for study participation. Patients having moderate-to-severe symptoms and meeting the threshold for symptom severity began other screening procedures, including the following: Bone marrow (BM) biopsy (an archival sample obtained within the preceding 24 weeks or a fresh sample) and skin biopsy of lesional and nonlesional skin (in patients with cutaneous mastocytosis (CM)) were performed for confirmation of SM diagnosis and quantification of mast cells (MCs); patients with CM (maculopapular) had skin photographs taken. Additional procedures include: magnetic resonance imaging/computed tomography scan of the brain; bone densitometry; serum tryptase, KIT D816 mutation testing; routine laboratory testing; ECG; and physical examination. All procedures are completed within a 6-week period before the final 14-day collection of baseline ISM-SAF symptoms is initiated.
Once screening procedures were completed, patients had ISM-SAF data collected for another 2 weeks (14 days) to establish baseline scores, after which patients meeting all eligibility requirements were randomly assigned to treatment and began dosing.
as §2, §3
The RP2D was determined based on the efficacy, safety, and PK at each dose level. The primary evaluation of efficacy was the symptom improvement using the ISM-SAF. The primary criterion for selection of the RP2D was the dose of Compound (I) that produces the maximum reduction in total symptom score (TSS), as assessed using the ISM-SAF at Week 12 compared with Baseline (Day −14 to Day −1). […]

Cn1cc(-c2cc3c(N4CCN(c5ncc([C@@](C)(N)c6ccc(F)cc6)cn5)CC4)ncnn3c2)cn1 [Compound (I), (S)-1-(4-fluorophenyl)-1-(2-(4-(6-(1-methyl-1H-pyrazol-4-yl)pyrrolo[2,1-f][1,2,4]triazin-4-yl)piperazin-1-yl)pyrimidin-5-yl)ethan-1-amine]
Grade of all adverse events reported ([1]; 25 mg QD dose cohort): Grade 1 or 2 | Patients with serious AEs, Grade 3 or higher AEs, or dose modifications ([1]; 25 mg QD dose cohort): No patients | Grade ≥3 AEs ([1]; 25 mg once daily cohort): No grade ≥3 AEs | % of subjects with ≥1 AE ([1]; 25 mg, n = 10, any grade): 100% | AE Bone Pain ([1]; 25 mg, n = 10, any grade): 0% | AE Diarrhea ([1]; 25 mg, n = 10, any grade): 0% | AE Dizziness ([1]; 25 mg, n = 10, any grade): 30% | AE Face edema ([1]; 25 mg, n = 10, any grade): 10% | AE Fatigue ([1]; 25 mg, n = 10, any grade): 40% | AE Headache ([1]; 25 mg, n = 10, any grade): 30% | AE Nausea ([1]; 25 mg, n = 10, any grade): 10% | AE Periorbital edema ([1]; 25 mg, n = 10, any grade): 0% | AE Peripheral edema ([1]; 25 mg, n = 10, any grade): 10% | % of subjects with ≥1 AE ([1]; 25 mg, n = 10, grade 3): 0% | AE Bone Pain ([1]; 25 mg, n = 10, grade 3): 0% | AE Diarrhea ([1]; 25 mg, n = 10, grade 3): 0% | AE Dizziness ([1]; 25 mg, n = 10, grade 3): 0% | AE Face edema ([1]; 25 mg, n = 10, grade 3): 0% | AE Fatigue ([1]; 25 mg, n = 10, grade 3): 0% | AE Headache ([1]; 25 mg, n = 10, grade 3): 0% | AE Nausea ([1]; 25 mg, n = 10, grade 3): 0% | AE Periorbital edema ([1]; 25 mg, n = 10, grade 3): 0% | AE Peripheral edema ([1]; 25 mg, n = 10, grade 3): 0% | % of subjects with ≥1 AE ([1]; 50 mg, n = 10, any grade): 80% | AE Bone Pain ([1]; 50 mg, n = 10, any grade): 0% | AE Diarrhea ([1]; 50 mg, n = 10, any grade): 40% | AE Dizziness ([1]; 50 mg, n = 10, any grade): 30% | AE Face edema ([1]; 50 mg, n = 10, any grade): 0% | AE Fatigue ([1]; 50 mg, n = 10, any grade): 10% | AE Headache ([1]; 50 mg, n = 10, any grade): 30% | AE Nausea ([1]; 50 mg, n = 10, any grade): 60% | AE Periorbital edema ([1]; 50 mg, n = 10, any grade): 20% | AE Peripheral edema ([1]; 50 mg, n = 10, any grade): 20% | % of subjects with ≥1 AE ([1]; 50 mg, n = 10, grade 3): 20% | AE Bone Pain ([1]; 50 mg, n = 10, grade 3): 0% | AE Diarrhea ([1]; 50 mg, n = 10, grade 3): 10% | AE Dizziness ([1]; 50 mg, n = 10, grade 3): 0% | AE Face edema ([1]; 50 mg, n = 10, grade 3): 0% | AE Fatigue ([1]; 50 mg, n = 10, grade 3): 0% | AE Headache ([1]; 50 mg, n = 10, grade 3): 10% | AE Nausea ([1]; 50 mg, n = 10, grade 3): 10% | AE Periorbital edema ([1]; 50 mg, n = 10, grade 3): 0% | AE Peripheral edema ([1]; 50 mg, n = 10, grade 3): 0% | % of subjects with ≥1 AE ([1]; 100 mg, n = 10, any grade): 90% | AE Bone Pain ([1]; 100 mg, n = 10, any grade): 0% | AE Diarrhea ([1]; 100 mg, n = 10, any grade): 30% | AE Dizziness ([1]; 100 mg, n = 10, any grade): 40% | AE Face edema ([1]; 100 mg, n = 10, any grade): 40% | AE Fatigue ([1]; 100 mg, n = 10, any grade): 10% | AE Headache ([1]; 100 mg, n = 10, any grade): 30% | AE Nausea ([1]; 100 mg, n = 10, any grade): 40% | AE Periorbital edema ([1]; 100 mg, n = 10, any grade): 30% | AE Peripheral edema ([1]; 100 mg, n = 10, any grade): 20% | % of subjects with ≥1 AE ([1]; 100 mg, n = 10, grade 3): 40% | AE Bone Pain ([1]; 100 mg, n = 10, grade 3): 0% | AE Diarrhea ([1]; 100 mg, n = 10, grade 3): 10% | AE Dizziness ([1]; 100 mg, n = 10, grade 3): 0% | AE Face edema ([1]; 100 mg, n = 10, grade 3): 0% | AE Fatigue ([1]; 100 mg, n = 10, grade 3): 0% | AE Headache ([1]; 100 mg, n = 10, grade 3): 10% | AE Nausea ([1]; 100 mg, n = 10, grade 3): 0% | AE Periorbital edema ([1]; 100 mg, n = 10, grade 3): 0% | AE Peripheral edema ([1]; 100 mg, n = 10, grade 3): 0% | Tolerability ([1]; all doses (25, 50, 100 mg QD)): well-tolerated | Discontinuation of treatment due to AEs ([1]; all doses, as of data cutoff): no discontinuations for adverse effects; also recorded: no patients discontinued treatment due to AEs | Mean percent change in ISM-SAF TSS ([2]; 25 mg QD (n = 9), at 16 weeks): −31% | Mean percent change in ISM-SAF gastrointestinal domain ([2]; 25 mg QD (n = 9), at 16 weeks): −25% | Mean percent change in ISM-SAF neurological symptoms ([2]; 25 mg QD (n = 9), at 16 weeks): −26% | Mean percent change in ISM-SAF skin domain ([2]; 25 mg QD (n = 9), at 16 weeks): −37% | Mean reduction in total MC-QoL score ([2]; 25 mg QD (seven patients), 16 weeks): 34% | Mean reduction in total symptom score (TSS), ISM-SAF ([2]; 25 mg QD, baseline to 16 weeks): 31% | Quality of life, MC-QoL overall score and domain scores ([2]; 25 mg QD, week 16): improvements in quality of life; also recorded: improvements in all four domains | Reduction in ISM-SAF TSS and each symptom in the total domain score ([2]; 25 mg once daily, 16 weeks): statistically significant reduction | Mean improvement in ISM-SAF TSS ([2]; across all Compound (I) dose cohorts, 16 weeks, p=0.001 vs placebo): approximately 30%
